The record followed here is patent publication US20250236599A1, “LIPID NANOPARTICLES FOR OLIGONUCLEOTIDE DELIVERY” (ZIPHIUS NV, priority 2021, published 2025).

The nature of data set [1]: LNP particle size, polydispersity index and charge by Zeta Sizer. The settings on record: LNP lipid:DOPE:Cholesterol:DMG-PEG 35:20:43.5:1.5, firefly luciferase saRNA; for Polydispersity Index (PI) / Z-average (nm): N/P approx. 40/1. It counts as physicochemical. Here is the method: Cationic lipids, DOPE, Cholesterol and DMG-PEG lipid were solubilized in ethanol or DMSO at a molar ratio of 35:20:43.5:1.5 and a concentration of 100:25:20:25 μg/μL for C12-200 or 170:25:20:25 μg/μL for the comparator lipids. Lipid nanoparticles (LNP) were prepared by targeting an N/P ratio of approximately 40/1 with saRNA. Briefly, the firefly luciferase saRNA of approximately 9659 nucleotides was diluted to 0.5 mg/mL in 5 mM citrate buffer, pH 4.5. Microfluidic mixer (Ignite from Precision Nanosystems, California, USA) was used to mix the lipid solution with the saRNA aqueous solution at a ratio of about 1:3 (vol/vol) with total flow rates above 10 ml/min. The ethanol was then removed, and the external buffer replaced with 10 mM TRIS-HCL, PH 7.4, by dialysis. Finally, the lipid nanoparticles were filtered through a 0.2 μm pore sterile filter. Lipid nanoparticle particle size was 50-150 nm diameter and polydispersity index (PI) of 0.1-0.4 as determined by Zeta Sizer (Malvern Panalytical, UK). The charge of the formulation was also measured by Zeta Sizer and ranged between 20 to −20 mV.

Data set [2] is described as follows: saRNA loading / encapsulation efficiency, Quant-IT RiboGreen assay. It counts as physicochemical. The settings on record: LNP lipid:DOPE:Cholesterol:DMG-PEG 35:20:43.5:1.5, firefly luciferase saRNA. As for the experimental part:
The saRNA loading in LNP formulations was quantified using a Quant-IT RiboGreen assay (Thermo Fisher Scientific, Waltham, Massachusetts, USA) as previously described. 14 samples were diluted tenfold in 1x Tris HCL-EDTA (TE) buffer (10 mM Tris-HCL, 1 mM EDTA, pH 7.5) with or without 2% (v/v) Triton X-100 (Sigma-Aldrich, Saint Louis, Missouri, USA). Standard solutions were also prepared in 1xTE with or without 2% (v/v) Triton X-100 to account for any variation in fluorescence. The assay was performed according to the manufacturer's protocol. Samples were loaded on a black 96-well plate and analysed for fluorescence on a microplate reader (Tecan Infinite® 200 PRO) at an excitation of 485 nm and emission at 528 nm. Encapsulation efficiency was calculated between 80-100%.

Data set [3] has as its system expression of the luciferase saRNA. As to the kind of experiment: In vivo bioluminescent imaging after intramuscular injection of LNP-formulated luciferase saRNA. The settings on record: 1 μg LNP-formulated luciferase saRNA intramuscularly, female SWISS mice. As for the experimental part:
(§1) Female SWISS mice (6 weeks old) were purchased from Janvier Laboratories (Paris, France) and kept in individually ventilated cages with access to food and water ad libitum. Mice were anesthetized with isoflurane (Zoetis, Louvain-La-Neuve, Belgium) (5% for induction and 2% for maintenance) and intramuscularly injected with a total of 1 μg in 100 μL Tris-HCL (50 μL per leg) LNP-formulated luciferase saRNA (for each group n=7). The expression of the luciferase induced bioluminescence was measured via non-invasive In vivo bioluminescent imaging (In vivo Imaging System (IVIS) Lumina III, Perkin Elmer, Waltham, Massachusetts, USA), 10 minutes after subcutaneous injection of […] of D-luciferin (GoldBio, Saint Louis, Missouri, USA, #LUCK-1G) were measured in day 0 (before injection), day 1, day 3, day 5, day 7, day 10, day 15 and day 20.

Data set [4] is described as follows: Weight evolution of the animals following administration of LNPs. The settings on record: female SWISS mice. In kind it is in vivo. As for the experimental part:
as §1

Where [5] appears, read: Day 1, 1 μg LNP-formulated saRNA intramuscularly.
[6] abbreviates: Day 3, 1 μg LNP-formulated saRNA intramuscularly.
The mark [7] stands for this setting: Day 5, 1 μg LNP-formulated saRNA intramuscularly.
The mark [8] stands for this setting: Day 7, 1 μg LNP-formulated saRNA intramuscularly.
Where [9] appears, read: Day 10, 1 μg LNP-formulated saRNA intramuscularly.
Where [10] appears, read: Day 15, 1 μg LNP-formulated saRNA intramuscularly.
The mark [11] stands for this setting: Day 20, 1 μg LNP-formulated saRNA intramuscularly.

The structures appear in SMILES notation.

As to `CCCCCCCCCCCCCCOC(=O)CCN(CCC(=O)OCCCCCCCCCCCCCC)CCN(CCC(=O)OCCCCCCCCCCCCCC)CCN1CCN(CCN(CCC(=O)OCCCCCCCCCCCCCC)CCC(=O)OCCCCCCCCCCCCCC)CC1` [Comparator 2 (C2), reference compound], the “Zetapotential (mV)” value in data set [1] turned out to be 8.70 mV. In data set [1], the “Polydispersity Index (PI)” value worked out at 0.16. The “Z-average (nm)” value in data set [1] stood at 96.53 nm. In addition, in data set [2], the “Encapsulation (%)” value amounted to 97.61%. In addition, the “Bioluminescence expression of LNPs” value is listed as 2.19E+07 in data set [3] (Day 1); 8.21E+07 in data set [3] (Day 3); 2.21E+08 in data set [3] (Day 5); 1.62E+08 in data set [3] (Day 7); 2.27E+07 in data set [3] (Day 10); 2.04E+05 in data set [3] (Day 15). Further, the “Bioluminescence expression of LNPs” value in data set [3] (Day 20) was 9.42E+04. In addition, the “Weight” value is recorded as 27.80 g in data set [4] (Day 0); 27.00 g in data set [4] (setting [5]); 27.70 g in data set [4] (setting [6]); 27.44 g in data set [4] (setting [7]); 27.84 g in data set [4] (setting [8]); 27.31 g in data set [4] (setting [9]). Besides, the “Weight” value is 29.54 g in data set [4] (setting [10]) and 29.79 g in data set [4] (setting [11]).
Consider `CCCCCCC(CCCC)C(=O)OCCN(CCOC(=O)C(CCCC)CCCCCC)CCN(CCOC(=O)C(CCCC)CCCCCC)CCN1CCN(CCN(CCOC(=O)C(CCCC)CCCCCC)CCOC(=O)C(CCCC)CCCCCC)CC1` (stereo not shown) [Compound 9-26, ((2-(4-(2-((2-(bis(2-((2-butyloctanoyl)oxy)ethyl)amino)ethyl) (2-((2-butyloctanoyl)oxy)ethyl)amino)ethyl)piperazin-1-yl)ethyl)azanediyl) bis(ethane-2,1-diyl)bis(2-butyloctanoate)], for which the “Zetapotential (mV)” value in data set [1] is reported as −18.67 mV. Further, in data set [1], the “Polydispersity Index (PI)” value was 0.28. For the same molecule, in data set [1], the “Z-average (nm)” value came to 100.07 nm. The “Encapsulation (%)” value in data set [2] is given as 92.78%. Moreover, the “Bioluminescence expression of LNPs” value is 8.16E+06 in data set [3] (Day 1); 2.76E+08 in data set [3] (Day 3); 6.92E+08 in data set [3] (Day 5); 6.31E+08 in data set [3] (Day 7); 2.23E+07 in data set [3] (Day 10); 4.91E+05 in data set [3] (Day 15). Moreover, in data set [3] (Day 20), the “Bioluminescence expression of LNPs” value came out at 7.78E+04. Further, the “Weight” value worked out at 27.91 g in data set [4] (Day 0); 27.31 g in data set [4] (setting [5]); 28.51 g in data set [4] (setting [6]); 28.46 g in data set [4] (setting [7]); 28.44 g in data set [4] (setting [8]); 29.13 g in data set [4] (setting [9]). For the same molecule, the “Weight” value in data set [4] (setting [10]) amounted to 30.50 g; in data set [4] (setting [11]) it was 32.44 g.
On to `CCCCCCC(CCCC)C(=O)OCCCCN(CCCCOC(=O)C(CCCC)CCCCCC)CCN(CCCCOC(=O)C(CCCC)CCCCCC)CCN1CCN(CCN(CCCCOC(=O)C(CCCC)CCCCCC)CCCCOC(=O)C(CCCC)CCCCCC)CC1` (stereo not shown) [Compound 9-27, ((2-(4-(2-((2-(bis(4-((2-butyloctanoyl)oxy)butyl)amino)ethyl) (4-((2-butyloctanoyl)oxy)butyl)amino)ethyl)piperazin-1-yl)ethyl)azanediyl) bis(butane-4,1-diyl)bis(2-butyloctanoate)], for which, in data set [1], the “Zetapotential (mV)” value was −10.65 mV. In data set [1], the “Polydispersity Index (PI)” value was 0.18. Moreover, in data set [1], the “Z-average (nm)” value turned out to be 65.27 nm. Besides, in data set [2], the “Encapsulation (%)” value was determined as 93.93%. Also, the “Bioluminescence expression of LNPs” value was 4.09E+07 in data set [3] (Day 1); 1.51E+09 in data set [3] (Day 3); 1.35E+09 in data set [3] (Day 5); 9.33E+08 in data set [3] (Day 7); 2.88E+06 in data set [3] (Day 10); 2.77E+05 in data set [3] (Day 15). Also, the “Bioluminescence expression of LNPs” value in data set [3] (Day 20) is listed as 1.87E+05. For the same molecule, the “Weight” value in data set [4] (Day 0) is reported as 27.51 g; in data set [4] (setting [5]), 26.21 g; in data set [4] (setting [6]), 28.67 g; in data set [4] (setting [7]) it was 28.56 g; in data set [4] (setting [8]), 29.01 g; in data set [4] (setting [9]), 29.61 g. The “Weight” value in data set [4] (setting [10]) is reported as 30.77 g; in data set [4] (setting [11]) it was 31.87 g.
As to `CCCCCCCCC(CCCCCC)C(=O)OCCN(CCOC(=O)C(CCCCCC)CCCCCCCC)CCN(CCOC(=O)C(CCCCCC)CCCCCCCC)CCN1CCN(CCN(CCOC(=O)C(CCCCCC)CCCCCCCC)CCOC(=O)C(CCCCCC)CCCCCCCC)CC1` (stereo not shown) [Compound 9-29, ((2-(4-(2-((2-(bis(2-((2-hexyldecanoyl)oxy)ethyl)amino)ethyl) (2-((2-hexyldecanoyl)oxy)ethyl)amino)ethyl)piperazin-1-yl)ethyl)azanediyl)bis(ethane-2,1-diyl) bis(2-hexyldecanoate)], the “Zetapotential (mV)” value in data set [1] was −10.51 mV. The “Polydispersity Index (PI)” value in data set [1] was 0.15. The “Z-average (nm)” value in data set [1] came out at 102.48 nm. For the same molecule, the “Encapsulation (%)” value in data set [2] is 94.31%. Besides, the “Bioluminescence expression of LNPs” value worked out at 4.13E+05 in data set [3] (Day 1); 1.68E+07 in data set [3] (Day 3); 4.25E+07 in data set [3] (Day 5); 6.13E+07 in data set [3] (Day 7); 3.92E+07 in data set [3] (Day 10); 1.44E+06 in data set [3] (Day 15). In addition, the “Bioluminescence expression of LNPs” value in data set [3] (Day 20) came out at 5.43E+05. The “Weight” value was 29.59 g in data set [4] (Day 0); 29.53 g in data set [4] (setting [5]); 29.74 g in data set [4] (setting [6]); 30.04 g in data set [4] (setting [7]); 30.93 g in data set [4] (setting [8]); 30.63 g in data set [4] (setting [9]). Moreover, the “Weight” value in data set [4] (setting [10]) is on record as 30.89 g; in data set [4] (setting [11]), 32.69 g.
For `CCCCCCCCCCC(O)CN(CCN1CCN(CCN(CC(O)CCCCCCCCCC)CC(O)CCCCCCCCCC)CC1)CCN(CC(O)CCCCCCCCCC)CC(O)CCCCCCCCCC` (stereo not shown) [Compound C12-200, 1,1′-((2-(4-(2-((2-(bis (2-hydroxydodecyl)amino)ethyl) (2-hydroxydodecyl)amino)ethyl)piperazin-1-yl)ethyl)azanediyl) bis(dodecan-2-ol), reference compound], the “Zetapotential (mV)” value in data set [1] is 9.59 mV. Further, in data set [1], the “Polydispersity Index (PI)” value is 0.19. Besides, in data set [1], the “Z-average (nm)” value was found to be 94.03 nm. Further, the “Encapsulation (%)” value in data set [2] was 97.46%. In addition, the “Weight” value in data set [4] (Day 0) came out at 28.61 g; in data set [4] (setting [5]), 27.17 g; in data set [4] (setting [6]), 28.62 g; in data set [4] (setting [7]), 28.98 g; in data set [4] (setting [8]) it was 28.97 g; in data set [4] (setting [9]), 29.23 g. For the same molecule, the “Weight” value in data set [4] (setting [10]) was determined as 30.16 g; in data set [4] (setting [11]), 31.23 g.
